Data on one compound can be found in US8999374B2, “Method of inhibiting salmonella in livestock and poultry” (priority 2002, dated 2015).

This test has as its system Salmonella enteritidis KTE-61 strain. The test can be described thus: Inhibition test of salmonella/yeast agglutination. The class given is cell-based. Here is the method: Inhibition tests of salmonella agglutination were carried out on various saccharides as follows. […] Preliminary test was carried out for observing by stereoscopic microscope (OLYMPUS Co., Ltd) that agglutination occurs in this liquid mixture.
Next, in a similar manner to the aforementioned preliminary test, with the use of aqueous solution of saccharide where the aforementioned taken β-1,4-mannobiose and a mannose reagent (D-Mannose; Wako Pure Chemical Industries, Ltd.) were used instead of distilled water, the minimum concentration for inhibiting agglutination of liquid mixture (the minimum concentration for inhibiting agglutination) was obtained by varying the concentration, respectively. The actual minimum concentration for inhibiting the agglutination in liquid mixture and the relative concentration (ratio of concentration) when the minimum concentration for inhibiting agglutination of mannose is set 1 are shown in table 1.

As to `OC[C@H]1O[C@@H](O[C@H]2[C@H](O)[C@H](O)C(O)O[C@@H]2CO)[C@@H](O)[C@@H](O)[C@@H]1O` (stereo partly drawn) [Mannobiose, β-1,4-mannobiose], for the setting “Salmonella enteritidis KTE-61 with yeast Candida albicans KI-102001, concentration in liquid mixture”, the “minimum concentration for inhibiting agglutination, Actual Concentration” value stood at 1290 µg/mL. Moreover, for the setting “minimum concentration for inhibiting agglutination, mannose set to 1”, the “Relative Concentration (Based on Mannose)” value was determined as 2.173.
